What is called IC50 is the point on the concentration scale where inhibition reaches its midpoint. A higher IC50 goes with a need for much substance.

The assay deals with CCRF-CEM cells. The assay is described as follows: Test C: anti-cancer assay, CCRF-CEM cell viability by MTS reagent. As to conditions: 48 hr incubation at 37° C., MTS reagent 4 hr, absorbance at 490 nm, triplicate. In kind it is cell-based, human. As for the experimental part: The anti-cancer properties of the compounds of the invention can be evaluated using the following assay.
CCRF-CEM cells were grown in medium containing RPMI 1640 supplemented with 10% heat-inactivated fetal bovine serum, penicillin (124 units/ml of medium) and streptomycin (0.125 mg/ml of medium). A stock solution of […] was made using Trypan Blue Dye Exclusion Method as a means of counting the cells. The following concentrations of test compounds were made: 250, 200, 100, 10, 1, 0.1, 0.01 and 0.001 μM. The cell stock (50 μl, 5×10^4 cells) was incubated with 50 μl of each of the compounds in triplicate in a 96-well plate. The cells were incubated with the compound at 37° C. in a 10% CO2-90% air environment for 48 hr. A negative control was also done where the cells were incubated in drug-free medium.
Cell viability was determined by adding 20 μl of MTS reagent and incubating the cells for 4 hr after which the absorbance was found at 490 nm.
For orientation: Tetrazolium dyes change colour on reduction, which living cells bring about.

Take `Nc1ncnc2c1ncn2[C@@H]1O[C@H](CO)[C@@H](O)[C@@H]1O` [Ara-A, 9-beta-D-arabinofuranosyladenosine]: the IC50 came out at 384 ± 134 µM.
